Measured values from patent US8937091B2 (Japan Science and Technology Agency, priority 2009, dated 2015).

Key:
[1] = test system: SOCE (store operated calcium entry) in CHO cells; assay: Assay of SOCE (store operated calcium entry)-inhibiting action; assay type: cell-based, Chinese hamster; conditions: Cricetulus griseus, CHO, CHO cells, thapsigargin, read-out: SOCE level (percentage of inhibition); for inhibition at 10 µM: test compound 10 μmol; for inhibition at 30 µM: test compound 30 μmol; for inhibition at 100 µM: test compound 100 μmol
In short: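 CHO cells in calcium-free BSS received compound, then 1 μM thapsigargin 2 min later to deplete stores; after 9 min, 2 mM calcium chloride (final) added. Percent inhibition of the rise in intracellular calcium determined at various compound concentrations.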

[2] = test system: IICR (IP3 induced calcium release) in CHO cells; assay: Assay of IICR (IP3 induced calcium release)-inhibiting action; assay type: cell-based, Chinese hamster; conditions: Cricetulus griseus, CHO, CHO cells, 10 μM ATP, read-out: IICR level (percentage of inhibition); for inhibition at 10 µM: test compound 10 μmol; for inhibition at 30 µM: test compound 30 μmol; for inhibition at 100 µM: test compound 100 μmol
In short: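 CHO cell medium replaced with calcium-containing BSS; compound added 1 min later, then 10 μM ATP after a further 2 min. Percent inhibition of the ATP-evoked rise in intracellular calcium determined at each compound concentration.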

Compound | inhibition at 10 µM [1] | inhibition at 30 µM [1] | inhibition at 100 µM [1] | inhibition at 10 µM [2] | inhibition at 30 µM [2] | inhibition at 100 µM [2]
CCN(CC)CCC(=O)c1ccc(Oc2ccccc2)cc1 [Example 116, 2-(N-diethyl)aminoethyl-4-phenoxyphenylketone] | 0% | 0% | 20% | 20% | 20% | 70%
Cc1csc(C(=O)CCN(Cc2ccccc2)C(C)C)c1 [Example 321, 2-(N-benzylisopropyl)aminoethyl-4-methyl-2-thienylketone] | 0% | 0% | 0% | 20% | 70% | 100%
O=C(CCN1CCCC1CO)c1ccc(Br)s1 (centres unmarked) [Example 333, 2-(2-hydroxymethylpyrrolidinyl)aminoethyl-5-bromo-2-thienylketone] | 20% | 30% | 20% | 0% | 30% | 50%
CC(C)N(CCC(=O)c1ccc(C#N)cc1)Cc1ccccc1 [Example 308, 2-(N-benzylisopropyl)aminoethyl-4-cyanophenylketone] | 0% | 0% | 10% | 90% | 100% | 95%
O=C(CCN(CCO)Cc1ccccc1)c1ccc(I)s1 [Example 379, 2-(N-2-hydroxyethyl-N-benzyl)aminoethyl-5-iodo-2-thienylketone] | 20% | 40% | 50% | 50% | 24% | 46%
NCC(O)CNCCC(=O)c1ccc(Br)s1 (centres unmarked) [Example 343, 2-(N-2-hydroxy-3-aminopropyl)aminoethyl-5-bromo-2-thienylketone] | 0% | 0% | 26% | 50% | 70% | 80%
CC(C)N(CCO)CCC(=O)c1ccc(C#N)cc1 [Example 309, 2-(N-hydroxylethylisopropyl)aminoethyl-4-cyanophenylketone] | 0% | 0% | 10% | 0% | 0% | 20%
CCc1nccnc1C(=O)CCN(Cc1ccccc1)C(C)(C)C [Example 188, 2-(N-t-butylbenzyl)aminoethyl-2-(3-ethyl)-pyrazylketone] | 0% | 0% | 20% | 50% | 90% | 100%
Cc1ccsc1C(=O)CCN(Cc1ccccc1)C(C)(C)C [Example 314, 2-(N-benzyl-t-butyl)aminoethyl-3-methyl-2-thienylketone] | 0% | 10% | 20% | 70% | 70% | 100%
NCCN(CCO)CCC(=O)c1ccc(Br)s1 [Example 334, 2-(N-2-hydroxyethyl-N-2-aminoethyl)aminoethyl-5-bromo-2-thienylketone] | 30% | 30% | 40% | 20% | 0% | 60%
COc1ccc(C(=O)CCN(Cc2ccccc2)C(C)C)cc1 [Example 72, 2-(N-isopropylbenzyl)aminoethyl-4-methoxyphenylketone] | 0% | 10% | 20% | 20% | 20% | 70%
CC(C)(C)N(CCC(=O)c1cc2ccccc2s1)Cc1ccccc1 [Example 285, 2-(N-t-butylbenzyl)aminoethyl-2-benzothienylketone] | – | 0% | 50% | 50% | 80% | 60%
O=C(CCN1CCCCC1CO)c1ccncc1 (centres unmarked) [Example 217] | 10% | 0% | 20% | 0% | 20% | 50%
CC(=O)CCN(CCO)C(C)C [Example 197, 2-(N-hydroxyethylisopropyl)aminoethylmethylketone] | 0% | 0% | 0% | 0% | 0% | 0%
